Legend:
COX-1 = molecular target: T1, COX-1 (Ovis aries, UniProt P05979); test: recombinant COX-1 enzyme inhibition; type: biochemical
T1 sequence (P05979 25-600): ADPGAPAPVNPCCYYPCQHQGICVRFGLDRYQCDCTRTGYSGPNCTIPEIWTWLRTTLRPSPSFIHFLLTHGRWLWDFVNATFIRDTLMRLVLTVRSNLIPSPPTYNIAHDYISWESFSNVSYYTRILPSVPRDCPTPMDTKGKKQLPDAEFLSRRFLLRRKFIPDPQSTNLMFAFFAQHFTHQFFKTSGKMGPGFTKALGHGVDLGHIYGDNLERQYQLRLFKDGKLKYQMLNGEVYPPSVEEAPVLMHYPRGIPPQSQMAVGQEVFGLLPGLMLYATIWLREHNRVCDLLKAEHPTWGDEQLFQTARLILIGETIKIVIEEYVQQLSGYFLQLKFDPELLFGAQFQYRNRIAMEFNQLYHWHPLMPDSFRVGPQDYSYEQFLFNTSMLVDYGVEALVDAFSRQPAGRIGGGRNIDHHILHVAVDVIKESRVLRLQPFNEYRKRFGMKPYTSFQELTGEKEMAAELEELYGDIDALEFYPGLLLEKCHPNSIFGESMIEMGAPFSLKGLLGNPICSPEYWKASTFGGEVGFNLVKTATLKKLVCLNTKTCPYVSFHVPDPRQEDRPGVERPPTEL

COX-2 = molecular target: T2, COX-2 (Ovis aries, UniProt P79208); test: recombinant COX-2 enzyme inhibition; type: biochemical
T2 sequence (P79208 17-603): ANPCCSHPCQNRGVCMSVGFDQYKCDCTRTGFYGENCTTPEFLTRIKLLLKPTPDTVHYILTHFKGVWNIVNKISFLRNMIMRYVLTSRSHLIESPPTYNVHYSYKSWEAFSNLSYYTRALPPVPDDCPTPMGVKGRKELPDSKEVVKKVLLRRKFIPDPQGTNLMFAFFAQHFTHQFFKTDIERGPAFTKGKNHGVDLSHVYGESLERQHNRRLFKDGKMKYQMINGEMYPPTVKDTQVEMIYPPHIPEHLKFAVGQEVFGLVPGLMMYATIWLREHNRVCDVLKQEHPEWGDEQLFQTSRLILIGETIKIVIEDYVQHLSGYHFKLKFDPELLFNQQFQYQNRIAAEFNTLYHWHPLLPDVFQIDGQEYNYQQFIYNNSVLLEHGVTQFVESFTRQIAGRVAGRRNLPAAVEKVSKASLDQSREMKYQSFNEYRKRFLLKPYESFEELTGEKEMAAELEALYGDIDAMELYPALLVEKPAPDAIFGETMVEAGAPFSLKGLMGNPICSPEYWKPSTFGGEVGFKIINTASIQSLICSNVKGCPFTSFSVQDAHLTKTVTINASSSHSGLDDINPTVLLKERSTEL

## CC(=O)Oc1ccc(NCCc2ccc(C(F)(F)F)cc2)cc1C(=O)O [flusalazine, 2-acetoxy-5-(2-4-(trifluoromethyl)-phenethylamino)-benzoic acid]
COX-1
  IC50: 16.2 µM
COX-2
  IC50: 651 µM
